Experimental data reported in US3974277A, “2-[2-(5-Nitro-2-furyl)vinyl]-4-(anilino)quinazolines as growth promotants and feed efficiency enhancing agents” (Diamond Shamrock Corporation, priority 1975, dated 1976).
Positions of bridges follow the written chain, without caps; N, C: chain ends. Non-standard residues stand in square brackets, D forms with d. Residues, ends and D or L forms follow the SMILES beside them. *: point of attachment. Ileψ(thiazoline)Cys = CC[C@H](C)[C@H](N)C1=N[C@H](C(=O)*)CS1; dOrn = NCCC[C@@H](N)C(=O)O

Columns and labels:
[1] = Chick growth promotion comparison, Example XI (Table V); assay type: in vivo, broiler cross chicks; conditions: 25 g/T, 4 weeks
Excerpt: The growth promotion tests described in Example X were repeated with the exception that five replicates of 8 chicks each were fed the formulations described in Table V for 4 weeks.

[2] = Chick growth promotion and feed efficiency at low levels, Example VIII (Table II); assay type: in vivo, broiler cross chicks
Excerpt: Day old broiler cross chicks were weight equalized into groups of 8 chicks each and were placed in battery brooders. The 32 chick treatment groups (4 replicates) were fed one of the five rations described below for a 4 week period. Weekly measurements of body weights and feed consumption were made by replicate, and these measurements used to calculate weight gain and feed efficiency.
The basal ration was the basal ration used in Example VII above. The remaining five rations were obtained by mixing the indicated quantities by bacitracin (4 g/T), chlortetracycline (10 g/T), product of Example I (10 g/T), and product of Example III of U.S. Pat. No. 3,542,784 -- Burch (10 g/T) as growth promotants with the basal ration.

[3] = Chick growth promotion, Example XII first test (Table VI); assay type: in vivo, broiler cross chicks; conditions: first set of tests, 25 g/T
Excerpt: (§1) The growth promotion tests described in Example X were repeated with the additional testing the products of Examples II and III.

[4] = system: Streptococcus group E; assay: Bactericide test, agar growth inhibition; assay type: cell-based; conditions: vs chlortetracycline
Excerpt: (§2) Test formulations were examined for bactericidal and/or bacteriostatic activity against the test organisms shown in Tables A and B. These organisms were chosen as being representative of commercially important pathogens affecting animal agriculture. The antibiotic chlortetracycline was chosen as a positive control, since it has a broad spectrum of activity against a large number of organisms, and its activity can be used for comparative purposes.
(§3) Basic test formulations of the product of Examples I, II, III, and of chlortetracycline were prepared by dissolving 16 mg (0.016 g) in 2.0 ml of stock emulsifier solution (0.25% Triton X-155 in acetone by volume) and making each solution up to 50 ml with deionized water. The concentration of the test compound in the basic formuation was 320 ppm. Lower concentrations of the test compound were obtained by diluting the basic formulation with a 4% solution of the stock emulsifier in deionized water so that each dilution in the series differed only in test compound content.
(§4) Nutrient-tryptic soy agar (NTA) consisting of 2.0% Difco Bactoagar 0.8% nutrient broth (Difco), and 0.5% tryptic soy broth (Difco) was prepared and sterilized by autoclaving. A 2 ml aliquot of each test formulation was added to 8 ml of molten NTA. This mixture was then plated in a sterile polystyrene petri dish (100 × 15 mm). After the agar was set, suspensions of each of the test organisms were simultaneously streaked into the surface of the agar. The inoculated plates were incubated for 48 hr at 28°C. The inhibition of growth of each organism was rated by visual comparison with the organism developing on non-treated agar. Growth inhibition reported as per cent control was rated in three categories as follows: 0% control, growth equivalent to that on non-treated agar; 50% control, sparse development and separated colonies; 100% control, no visible growth or development of colonies.

[5] = system: Streptococcus agalactiae; assay: Bactericide test, agar growth inhibition; assay type: cell-based; conditions: vs chlortetracycline
Excerpt: as §2, §3, §4

[6] = system: Erysipelothrix rhusiopathiae; assay: Bactericide test, agar growth inhibition; assay type: cell-based; conditions: vs chlortetracycline
Excerpt: as §2, §3, §4

[7] = system: Bordetella bronchiseptica; assay: Bactericide test, agar growth inhibition; assay type: cell-based; conditions: vs chlortetracycline
Excerpt: as §2, §3, §4

[8] = system: Vibrio coli; assay: Bactericide test, agar growth inhibition; assay type: cell-based; conditions: vs chlortetracycline
Excerpt: as §2, §3, §4

[9] = system: Streptococcus faecalis; assay: Bactericide test, agar growth inhibition; assay type: cell-based; conditions: vs chlortetracycline
Excerpt: as §2, §3
as §4, with “colonies. […]” for “colonies.”

[10] = Chick growth promotion, Example XII repeat test (Table VII); assay type: in vivo, broiler cross chicks; conditions: second set of tests, 25 g/T
Excerpt: as §1

[11] = Chick growth promotion titration dosage, Example IX (Table III); assay type: in vivo, broiler cross chicks
Excerpt: The concentrations used in this test were 6.25, 12.5, 25, 50, 100, 200 and 400 g of the Product of Example I per ton of the Basal Ration described in Example VII above. The same number and size chick treatment groups were used in this test as in Example VIII above.

[12] = Swine growth rate and feed efficiency, Example XIII (Table VIII); assay type: in vivo, weanling pigs; conditions: 25 g/T
Excerpt: Thirty-six weanling pigs weighing approximately 30 pounds each in good physical condition and originating from a common source were used in these tests. The pigs were allocated into sex and weight equalized pens of six pigs each. A 1 week period was allowed for acclimatization before testing. Three replicates of six pigs were fed the basal ration described below, and three replicates were fed the same basal ration supplemented with 25 g/T of the product of Example I.
The basal ration was a 17% commercial corn-soya pelletized formulation which was free of antibiotic and drug components. Composition of the basal ration formulation was: […]
The rations were offered ad libitum from 6 bushel self-feeders with a continuous supply of fresh water. The same ration formulations were used throughout the 6 week feeding period. Individual pig weighing were made after 0, 2, 4 and 6 (termination) week periods. Feed consumption records were kept on a pen basis, with feed efficiency conversion being compiled at the end of the 2nd, 4th and 6th (termination) week of feeding. Complete morbidity and mortality records were kept.

[13] = Chick growth promotion comparison, Example X (Table IV); assay type: in vivo, broiler cross chicks; conditions: 25 g/T
Excerpt: This example compares growth promotion activity of the product of Example I with other growth promotants at a concentration of 25 g/T in the Basal Ration described in Example VII. The other growth promotants include the product described in Example I of U.S. Pat. No. 3,542,784 -- Burch and quinoxaline-1,4-dioxide. Day old broiler cross chicks were weight equalized into groups of 8 chicks each, and four replicates of 8 chicks each were fed the experimental rations over a 4 week period.

Row | Structure (SMILES) | effect on growth rate and feed efficiency (in words) [3] | effectiveness compared with chlortetracycline [4] | effectiveness compared with chlortetracycline [5] | effectiveness compared with chlortetracycline [6] | effectiveness compared with chlortetracycline [7] | effectiveness compared with chlortetracycline [8] | effectiveness compared with chlortetracycline [9] | effect on growth rate and feed efficiency (in words) [10] | also measured
1 | CC[C@H](C)[C@H](N)C1=N[C@H](C(=O)N[C@@H](CC(C)C)C(=O)N[C@H](CCC(=O)O)C(=O)N[C@H](C(=O)N[C@H]2CCCCNC(=O)[C@H](CC(N)=O)NC(=O)[C@@H](CC(=O)O)NC(=O)[C@H](Cc3cnc[nH]3)NC(=O)[C@@H](Cc3ccccc3)NC(=O)[C@H]([C@@H](C)CC)NC(=O)[C@@H](CCCN)NC2=O)[C@@H](C)CC)CS1 [Bacitracin] ({Ileψ(thiazoline)Cys}-L[dE]IK[dOrn]I[dF]H[dD]N; lactam 4-C) | – | – | – | – | – | – | – | – | Improved Response Over Basal Ration, Feed Efficiency [1]: +3.1%; Improved Response Over Basal Ration, Gain [1]: +1.2%; Improved Response Over Basal Ration, Feed Efficiency ([2]; 4 g/T, 4 weeks): +1.2%; Improved Response Over Basal Ration, Gain ([2]; 4 g/T, 4 weeks): -2.3%
2 | O=[N+]([O-])c1ccc(C=Cc2nc(Nc3cccc(O)c3)c3ccccc3n2)o1 [Example II, 2-[2-(5-nitro-2-furyl)vinyl]-4-(m-hydroxyanilino)quinazoline] | moderate improvements | considerably more effective | considerably more effective | considerably more effective | considerably more effective | considerably more effective | considerably more effective | – | –
3 | O=[N+]([O-])c1ccc(-c2nc(Nc3ccc(O)cc3)c3ccccc3n2)o1 [Example III of U.S. 3,542,784 - Burch, 2-(5-nitro-2-furyl)-4-(p-hydroxyanilino)quinazoline, reference compound] | essentially no effect on growth rate or feed efficiency in either test | – | – | – | – | – | – | essentially no effect on growth rate or feed efficiency in either test | –
4 | O=[N+]([O-])c1ccc(C=Cc2nc(Nc3ccc(O)cc3)c3ccccc3n2)o1 [Example I, 2-[2-(5-nitro-2-furyl)vinyl]-4-(p-hydroxyanilino)quinazoline] | moderate improvements in production parameters in both tests | considerably more effective | considerably more effective | considerably more effective | considerably more effective | considerably more effective | considerably more effective | moderate improvements in production parameters in both tests | weight gain (in words) ([11]; 100 g/T): unexplained absence of weight gain improvement; activity (in words) ([11]; 400 g/T): sharp downturn; growth promotion (in words) ([2]; low levels in feed): greater growth promotion than any of the other growth promotants; growth and feed efficiency (in words) [12]: very substantial growth improvement and enhanced feed efficiency
5 | O=[N+]([O-])c1ccc(C=Cc2nc(Nc3ccccc3)c3ccccc3n2)o1 [Example IV, 2-[2-(5-nitro-2-furyl)vinyl]-4-anilinoquinazoline] | – | considerably more effective | considerably more effective | considerably more effective | considerably more effective | considerably more effective | considerably more effective | – | –
6 | [O-][n+]1cc[n+]([O-])c2ccccc21 [Quinoxaline-1,4-dioxide, quinoxaline-1,4-dioxide] | – | – | – | – | – | – | – | – | response in growth rate and feed efficiency (in words) [13]: did not have any apparent effect
